Measurements taken from patent publication US12331048B2, “Pyrido-[3,4-d]pyridazine amine derivatives useful as NLRP3 inhibitors” (Ventus Therapeutics U.S., Inc., priority 2022, dated 2025).
Values after ≈ are worked out from the molar mass of the structure shown. Read-outs that look alike come from different tables or passages of the source.

How the values were obtained:
[1] = Solubility in phosphate buffered solution (PBS, pH 7.4); assay type: physicochemical; details: for solubility at 2 h: phosphate buffered solution (PBS), aqueous buffer, kinetic from dmso stock; for increase in solubility (PBS, pH 7.4) compared to Comparative Example 3: relative to Comparative Example 3 (6.7 uM)
Method: In additional embodiments, the solubility of compounds of the instant disclosure may be determined following known procedures, such as described in Alsenz and Kansy, Advanced Drug Delivery Reviews (2007) 59:546-567, and Wang et al. J Mass Spectrom. (2000) 35:71-76. For example, the kinetic solubility in physiologically relevant media, such as phosphate buffered solution (PBS, pH 7.4) or simulated gastric fluid (SGF), may be measured using serial dilution and two hour incubation period, followed by filtration, and reported in μM by LC-MS/MS. Thermodynamic solubility in physiologically relevant media may be measured by LC-MS/MS, after a twenty-four hour incubation, followed by filtration, and reported in mg/mL. Optimized solubility may be beneficial for manufacturing and further processing of the compound. Furthermore, optimized solubility allows for a more efficient in vitro analysis of the compound, including data collection around the compound's safety, drug-drug interactions, potency, selectivity, metabolism, and permeability. […]

NLRP3 = target: T1, NLRP3 (Homo sapiens, UniProt Q96P20); assay: Human whole blood (hWB) NLRP3 assay; assay type: cell-based; details: LPS priming 1 μg/ml, ATP activation, read-out: hWB IC50 (raw activity data)
T1 construct: endogenous in cells
T1 sequence (Q96P20 whole entry): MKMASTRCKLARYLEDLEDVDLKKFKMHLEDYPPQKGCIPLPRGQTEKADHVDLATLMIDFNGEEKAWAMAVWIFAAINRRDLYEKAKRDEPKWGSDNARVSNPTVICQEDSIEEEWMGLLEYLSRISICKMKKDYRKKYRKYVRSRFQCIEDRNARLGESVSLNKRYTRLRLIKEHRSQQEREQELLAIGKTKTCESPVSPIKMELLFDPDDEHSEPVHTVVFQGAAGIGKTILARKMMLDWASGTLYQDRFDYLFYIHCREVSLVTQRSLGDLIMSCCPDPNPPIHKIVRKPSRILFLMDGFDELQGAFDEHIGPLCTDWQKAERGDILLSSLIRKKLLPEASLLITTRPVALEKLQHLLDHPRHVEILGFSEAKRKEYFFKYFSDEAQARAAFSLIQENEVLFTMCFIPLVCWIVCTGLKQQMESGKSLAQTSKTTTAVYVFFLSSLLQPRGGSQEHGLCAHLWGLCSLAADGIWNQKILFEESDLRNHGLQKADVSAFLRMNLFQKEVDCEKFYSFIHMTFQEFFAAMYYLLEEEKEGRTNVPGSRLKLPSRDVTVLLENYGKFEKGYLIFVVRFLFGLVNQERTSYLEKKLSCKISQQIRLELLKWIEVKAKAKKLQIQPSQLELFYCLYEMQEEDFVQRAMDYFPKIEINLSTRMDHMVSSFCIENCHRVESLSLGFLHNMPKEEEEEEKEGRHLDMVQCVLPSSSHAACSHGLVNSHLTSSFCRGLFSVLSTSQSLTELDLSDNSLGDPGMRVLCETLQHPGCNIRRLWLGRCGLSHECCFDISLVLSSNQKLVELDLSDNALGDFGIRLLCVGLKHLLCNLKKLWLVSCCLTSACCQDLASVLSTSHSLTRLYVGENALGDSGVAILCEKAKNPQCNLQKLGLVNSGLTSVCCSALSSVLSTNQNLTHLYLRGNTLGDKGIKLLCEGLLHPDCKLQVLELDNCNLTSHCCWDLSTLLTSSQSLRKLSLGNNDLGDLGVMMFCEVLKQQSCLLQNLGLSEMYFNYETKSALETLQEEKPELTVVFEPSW
Method: Heparin lithium coated tubes were used to collect blood from volunteers. Blood samples were distributed on 96 well plates using 90 μl per well. Priming was performed by adding 5 μl of LPS (O26:B6; Sigma L-2654) at a final concentration of 1 μg/ml for 4.5 hours in a humidified incubator with 37° C., 5% CO2. Thirty minutes prior to NLRP3 activation, 5 μl of a 20× compound solution or vehicle (2% DMSO) was added to each well and plates were incubated on a shaker (450 rpm) in a humidified incubator with 37° C., 5% CO2. Activation was then performed by adding 3.3 μl of a 31×ATP solution per well. At the end of the 30 minutes stimulation, the plates were centrifuged (800 g, 10 min. room temperature) and the plasma from each well was frozen at −80° C. […] levels in the supernatant were analyzed using a mesoscale discovery assay (MSD K151TUK) according to the manufacturers' instructions. Human whole blood was drawn from healthy volunteers after obtaining written informed consent.
Table D assigns each compound a code for potency in the human whole blood (hWB) NLRP3 Assay: A or B. According to the code. […] The corresponding raw activity data is also included.

[2] = Brain levels (kp and kpu,u) after oral administration; assay type: in vivo, CDI mice; details: mice, 20 mpk PO; for Kp at 24 h / Kpu,u (unbound brain-to-plasma ratio): CDI, mouse, brain / plasma, po, 20 mg/kg; for Kp at 24 h: whole brain AUC over 24 h divided by plasma AUC
Method: The in vivo total brain to plasma ratio was assessed in CDI mice after oral administration of the compound. Blood was collected at several timepoints up to 24 h, and transferred into plastic micro centrifuge tubes with EDTA-K2 as anticoagulant. Blood samples were centrifuged at 4000 g for 5 minutes at 4° C. to obtain plasma, then immediately frozen and stored at −75±15° C. prior to analysis. Animals were terminally anaesthetized with a rising concentration of CO2 gas at about 1 minute. At selected timepoints, whole brains were removed from the skull, rinsed in cold PBS to remove blood, dried with clean gauze, then frozen in liquid nitrogen and kept at −75±15° C. before analysis. At the time of analysis, brain samples were homogenized with PBS by tissue weight (g) to PBS volume (mL) ratio 1:3. Plasma and brain drug levels were quantified by LC/MS/MS on a AB Sciex Triple Quad 5500+ instrument, after separation on a HALO 160A ES-C18, 2.7 μm 2.1-50 mm column. Quantitation was performed using a calibration curve prepared in blank plasma or blank brain homogenate. The software WinNonlin (Phoenix™) was used for pharmacokinetic analysis from the concentrations versus time data, including the AUCinf and AUClast. The Kp ratio (total brain concentration over total plasma concentration) was calculated as (AUCtot,br)/(AUCtot,pl).
The unbound brain exposure was assessed as Kpuu, which is the free brain/free plasma concentration ratio (Cu,br/Cu,pl). The Cu,br/Cu,pl ratios were obtained from in vivo total brain to plasma ratios (Ctot,br/Ctot,pl) by using in vitro determined Fu,br and Fu,pl.
Plasma protein binding and brain homogenate protein binding were measured by equilibrium dialysis in a HTDialysis plate. The dialysis membranes were soaked in ultrapure water for 60 minutes to separate strips, then in 20% ethanol for 20 minutes, finally in dialysis buffer for 20 minutes. The dialysis set up was assembled according to the manufacturer's instruction. Each cell received 150 μL of plasma or brain homogenate spiked with 1 mM of compound, and dialyzed against an equal volume of dialysis buffer (PBS). The dialysis plate was sealed and incubated in an incubator at 37° C. with 5% CO2 at 100 rpm for 6 hours. At the end of incubation, compound concentration was measured in both chambers by LC-MS/MS on a Triple Quad™ 5500 from AB Inc after separation on a XSelect Hss T3 2.5μ (2.1×30 mm) column. Free fraction (Fu) was calculated as (Peak Area Ratio buffer chamber/Peak Area Ratio plasma chamber).
Kpuu was calculated as (AUCtot,br×Fu,br)/(AUCtot,pl×Fu,pl).
The below table also assigns each compound a code for kp and kpu,u values: A or B. According to the code. A represents a value of >0.3 and B represents a value of ≤0.3. […] The kpu,u was then calculated upon correcting this kp value with mouse plasma protein binding and mouse brain homogenates binding. A Kpu,u value >0.3 is brain penetrant, and Kpu,u value less than or equal to 0.3 is not brain penetrant. N.D.=not determined. The corresponding raw kp and kpu,u data is also included.

[3] = kp corrected with mouse plasma protein binding and mouse brain homogenate binding

solubility at 2 h [1] [µM]	increase in solubility (PBS, pH 7.4) compared to Comparative Example 3 [1] [fold]	IC50 (NLRP3) [µM]	Kp at 24 h ([2]; read-out: kp (code))	Kp at 24 h ([2]; read-out: kp (raw))	Kpu,u (unbound brain-to-plasma ratio) [2, 3]	kpu,u (code) [2, 3]	kpu,u (raw) [2, 3]	SMILES
280 (≈ 108 µg/mL)	42	0.9	≤ 0.3	0.1	0.17	B (B represents a value of ≤0.3)		Cc1cc(O)c(-c2nnc(N[C@H]3COC(C)(C)C3)c3cnccc23)c(Cl)c1 (single isomer, unassigned) [Compound 26*]
		1.4	> 0.3	0.96	1.3	A (A represents a value of >0.3)		CC1(C)C[C@@H](Nc2nnc(-c3ccc(C(F)(F)F)cc3O)c3ccncc23)CCO1 (single isomer, unassigned) [Compound 11*]
		1.1	> 0.3	0.73	0.3	A (A represents a value of >0.3)		C[C@@H]1COCC[C@H]1Nc1nnc(-c2ccc(Cl)cc2O)c2ccncc12 (single isomer, unassigned) [Compound 18A*]
290 (≈ 106 µg/mL)	43	0.33	≤ 0.3	0.05				Cc1cc(C)c(-c2nnc(N[C@H]3COC(C)(C)C3)c3cnccc23)c(O)c1 (single isomer, unassigned) [Compound 24*]
		1.2	> 0.3	1	0.2	B (B represents a value of ≤0.3)		C[C@@H]1C[C@@H](Nc2nnc(-c3ccc(Cl)cc3O)c3ccncc23)CCO1 (single isomer, unassigned) [Compound 25D*]
		1	> 0.3	0.9	0.31	A (A represents a value of >0.3)		CC1(C)COC[C@@H]1Nc1nnc(-c2ccc(Cl)cc2O)c2ccncc12 (single isomer, unassigned) [Compound 1*]
		0.16	≤ 0.3	0.24	2.2	A (A represents a value of >0.3)		[2H]C([2H])([2H])OC(C)(C)CNc1nnc(-c2ccc(C(F)F)cc2O)c2ccncc12 [Compound 2, 5-(difluoromethyl)-2-(4-((2-(methoxy-d3)-2-methylpropyl)amino)pyrido[3,4-d]pyridazin-1-yl)phenol]
		0.96	> 0.3	1.1	0.34	A (A represents a value of >0.3)		CC1(C)OCC[C@H]1Nc1nnc(-c2ccc(C(F)(F)F)cc2O)c2ccncc12 (single isomer, unassigned) [Compound 22]
		0.89	> 0.3	0.68	0.47	A (A represents a value of >0.3)		C[C@H]1COCC[C@H]1Nc1nnc(-c2ccc(Cl)cc2O)c2ccncc12 (single isomer, unassigned) [Compound 18*]
		0.89	> 0.3	0.61	0.46	A (A represents a value of >0.3)		CC1(C)CC[C@H](Nc2nnc(-c3ccc(C(F)F)cc3O)c3ccncc23)CO1 (single isomer, unassigned) [Compound 20]
		0.8	≤ 0.3	0.13	0.15	B (B represents a value of ≤0.3)		Oc1cc(Cl)ccc1-c1nnc(N[C@H]2CCOC2)c2cnccc12 (single isomer, unassigned) [Compound 7*, reference compound]
		1.8	> 0.3	0.48	0.59	A (A represents a value of >0.3)		CC1(C)C[C@@H](Nc2nnc(-c3ccc(C(F)F)cc3O)c3ccncc23)CCO1 (single isomer, unassigned) [Compound 16*]
		1.2	> 0.3	0.83	2.2	A (A represents a value of >0.3)		CC1(C)COCC[C@@H]1Nc1nnc(-c2ccc(C(F)(F)F)cc2O)c2ccncc12 (single isomer, unassigned) [Compound 15]
6.7 (≈ 2.48 µg/mL)			> 0.3	0.4		A (A represents a value of >0.3)	0.43	CC1(C)C[C@@H](Nc2nnc(-c3ccc(Cl)cc3O)c3ccncc23)CO1 [Comparative Example 3, (R)-5-chloro-2-(4-((5,5-dimethyltetrahydrofuran-3-yl)amino)pyrido[3,4-d]pyridazin-1-yl)phenol, reference compound]
		1.4	> 0.3	1.4	0.81	A (A represents a value of >0.3)		Oc1cc(C(F)(F)F)ccc1-c1nnc(N[C@H]2COC3(CC3)C2)c2cnccc12 (single isomer, unassigned) [Compound 19]
		0.19	> 0.3	0.58	2.2	A (A represents a value of >0.3)		CC1(C)COCC[C@@H]1Nc1nnc(-c2ccc(Cl)cc2O)c2ccncc12 (single isomer, unassigned) [Compound 3*]
		0.2		0.18	0.11	B (B represents a value of ≤0.3)		OCC1(CNc2nnc(-c3ccc(Cl)cc3O)c3ccncc23)CC1 [Compound 8, 5-chloro-2-(4-(((1-(hydroxymethyl)cyclopropyl)methyl)amino)pyrido[3,4-d]pyridazin-1-yl)phenol, reference compound]
		0.58	> 0.3	1.1	0.1	B (B represents a value of ≤0.3)		C[C@@H]1C[C@H](Nc2nnc(-c3ccc(Cl)cc3O)c3ccncc23)CCO1 (single isomer, unassigned) [Compound 25A*]
